Reference: US12492212B2, “Substituted pyrazolecarboxamides as sting activators” (Shanghai Institute of Materia Medica, Chinese Academy of …, priority 2019, dated 2025)

Key:
STING [1] = biological target: T1, STING (Homo sapiens, UniProt Q86WV6); assay: IFN β release from human PBMC cells stimulated by compound (ELISA); type: cell-based; conditions: LPS 10 ng/ml, cultured overnight
T1 construct: host or cells: human PBMCs
Experimental: Example 23: Activation Effect of Compound on Type I Interferon Pathway (ISG) Produced by Human Peripheral Blood Mononuclear Cell Line PBMC Cells
In this experiment, the function of STING agonist was evaluated by detecting the changes of type I interferon IFN β produced by compound stimulating human peripheral blood mononuclear cell line PBMC cells (AllCells, Cat #: PB005F). Before use, cryopreserved PBMCs were thawed in RPMI1640 medium and resuscitated overnight. The test compound was dissolved into DMSO and formulated as a mother liquor with a concentration of 10 mM. Before testing, the compound was diluted to 100 times of the working concentration (the working concentration was 30, 10, 3.33, 1.11, 0.370, 0.123, 0.0412, 0.0137 uM, respectively). PBMCs were collected and adjusted to a cell concentration of 5×10^5/ml. LPS was added to PBMCs at a final concentration of 10 ng/ml. In the 96-well cell culture plate, 200 ul PBMCs (1×10^5 cells per well) were added to each well. Then 2 ul diluted compound per well (duplicate wells, the final concentration of DMSO in each well was 1%) was added. Then a pipette was used to carefully mix the cells and the compound evenly. 2 ul DMSO (1% of final concentration) was added to the negative control. The cells were cultured overnight in an incubator at 37° C. The cell culture supernatant was collected to detect the concentration of type I interferon IFN β. The concentration of IFNβ was determined by ELISA kit of solid-phase antibody R&D-MAB8144-100 and detecting antibody R&D-MAB8143-100 (Biotinylated), converted into […] concentration according to standard curve, and EC50 value was calculated by GraphPad 5.0 fitting calibration curve.

STING [2] = biological target: T2, STING (Homo sapiens, UniProt Q86WV6, G230A/H232R/R293Q/R71H); assay: Type I interferon pathway (ISG) luciferase reporter in human THP1-Dual cells; type: cell-based; conditions: test concentration 10 μM, 24 hours, ratio of LUM of compound to LUM of blank control
T2 construct: THP1-Dual cells in the experiment were purchased from InvivoGen company; host or cells: THP1-Dual cells
T2 sequence (Q86WV6 whole entry R71H/G230A/H232R/R293Q): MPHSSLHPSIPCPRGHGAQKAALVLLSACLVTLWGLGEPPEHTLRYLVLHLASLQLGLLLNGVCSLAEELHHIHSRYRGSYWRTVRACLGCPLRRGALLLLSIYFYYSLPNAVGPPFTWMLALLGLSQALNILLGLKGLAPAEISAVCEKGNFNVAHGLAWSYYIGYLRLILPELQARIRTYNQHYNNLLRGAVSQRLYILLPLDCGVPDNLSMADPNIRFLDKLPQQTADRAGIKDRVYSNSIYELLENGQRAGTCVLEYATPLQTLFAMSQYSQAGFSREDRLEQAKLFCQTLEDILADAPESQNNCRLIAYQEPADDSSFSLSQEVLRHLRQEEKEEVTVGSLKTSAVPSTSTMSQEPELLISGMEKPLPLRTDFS
Experimental: In this experiment, the ability of compounds to activate STING was evaluated by detecting the ability of compounds to stimulate the production of IFN-β in human peripheral blood mononuclear cell line THP1-Dual cells. THP1-Dual cells in the experiment were purchased from InvivoGen company. […] THP1-Dual cells were counted, cell concentration was adjusted to be 1×10^6/ml, and 180 μl of cells was added to each well for incubation. […] In addition, the blank group was added with 200 μl of culture solution. After 24 hours, 20 μl of culture solution was took from each well to a new bottom transparent 96-well plate, and 50 μl luciferase detection reagent QUANTI-Luc™ was added, the fluorescence value was immediately determined. […] The data were described by the ratio of the LUM of compound to the LUM of blank control.

CT26 colon cancer = CT26 colon cancer subcutaneous transplantation tumor model; type: in vivo, Balb/C female mice; conditions: CT26, Balb/C mice, 0.1 mg/kg and 0.3 mg/kg, 1st, 4th and 7th days after grouping, vs negative control, FIG. 1
Experimental: Example 25: The Efficacy Study of the Compound of the Present Invention in the CT26 Colon Cancer Subcutaneous Transplantation Tumor Model
In this experiment, 4-6 weeks old Balb/C female mice were used, and CT26 cells (2.5*10^5) were injected subcutaneously into axils of each mouse. The tumor growth of mice was observed. Grouping was started when the tumor volume was 50-100 mm^3. The compound 19 of the present invention and the negative control were administrated. The compound 19 of the present invention and the negative control were administrated on 1st, 4th and 7th days after grouping. The dosage of the compound 19 in each group was 0.1 mg/kg and 0.3 mg/kg respectively. The experimental results were evaluated in the form of tumor volume growth curves, and the experimental results were shown in FIG. 1.

EMT6 breast cancer = EMT6 breast cancer orthotopic transplantation tumor model; type: in vivo, Balb/C female mice; conditions: EMT6, Balb/C mice, 1 mg/kg, 1st, 4th and 9th days after grouping, vs negative control, FIG. 2
Experimental: Example 26: The Efficacy Study of the Compound of the Present Invention in the EMT6 Breast Cancer Orthotopic Transplantation Tumor Model
In this experiment, 4-6 weeks old Balb/C female mice were used, and EMT6 cells (2.5*10^5) were injected subcutaneously into axils of each mouse. The tumor growth of mice was observed. Grouping was started when the tumor volume was 50-100 mm^3. The compound 19 of the present invention and the negative control were administrated on 1st, 4th and 9th days after grouping. The dosage of compound 19 of the present invention was 1 mg/kg. The experimental results were evaluated in the form of tumor volume growth curves, and the experimental results were shown in FIG. 2.

T1 sequence (Q86WV6 whole entry H232R): as the sequence (Q86WV6 whole entry R71H/G230A/H232R/R293Q) above, with H71R, A230G, Q293R counted along it

Compound	Fold change (Ratio to control) (STING [2])	other results
CCn1nc(C)cc1C(=O)Nc1nc2cc(C(N)=O)cc(OC)c2n1CCCCn1c(NC(=O)c2cc(C)nn2CC)nc2cc(C(N)=O)c3c(c21)CC(C)(C)O3 [Example 1, 1-(4-(5-carbamoyl-2-(1-ethyl-3-methyl-1H-pyrazol-5-formamido)-7-methoxy-1H-benzo[d]imidazol-1-yl)butyl)-2-(1-ethyl-3-methyl-1H-pyrazol-5-formamido)-7,7-dimethyl-7,8-dihydro-1H-benzofuran[4,5-d]imidazol-5-formamide]	–	EC50 (STING [1]): 362 nM
CCn1nc(C)cc1C(=O)Nc1nc2cc(C(N)=O)cc(OC)c2n1CCCCn1c(NC(=O)c2cc(C)nn2CC)nc2cc(C(N)=O)c3oc(C)cc3c21 [Example 2]	53.15	EC50 (STING [1]): 103 nM
CCn1nc(C)cc1C(=O)Nc1nc2cc(C(N)=O)cc(OC)c2n1C/C=C/Cn1c(NC(=O)c2cc(C)nn2CC)nc2cc(C(N)=O)c3oc(C)cc3c21 [Example 3, (E)-1-(4-(5-carbamoyl-2-(1-ethyl-3-methyl-1H-pyrazol-5-formamido)-7-methoxy-1H-benzo[d]imidazol-1-yl)but-2-en-1-yl)-2-(1-ethyl-3-methyl-1H-pyrazol-5-formamido)-7-methyl-1H-benzofuran[4,5-d]imidazol-5-formamide]	62.82	EC50 (STING [1]): 4.92 nM
COc1cc(C(N)=O)cc2nc(NC(=O)c3cc(C)nn3CC3CC3)n(C/C=C/Cn3c(NC(=O)c4cc(C)nn4CC4CC4)nc4cc(C(N)=O)c5oc(C)cc5c43)c12 [Example 5]	66.65	–
COc1cc(C(N)=O)cc2nc(NC(=O)c3cc(C)nn3CC(F)(F)F)n(C/C=C/Cn3c(NC(=O)c4cc(C)nn4CC(F)(F)F)nc4cc(C(N)=O)c5oc(C)cc5c43)c12 [Example 6]	86.31	–

Now from value to compound, other results behind:

Fold change (Ratio to control) (STING [2])	Compound	other results
148.64	C=CCn1nc(C)cc1C(=O)Nc1nc2cc(C(N)=O)cc(OCCCO)c2n1C/C=C/Cn1c(NC(=O)c2cc(C)nn2CC=C)nc2cc(C(N)=O)c3oc(C)cc3c21 [Example 9]	–
13.14	C#CCn1nc(C)cc1C(=O)Nc1nc2cc(C(N)=O)cc(OCCCO)c2n1C/C=C/Cn1c(NC(=O)c2cc(C)nn2CC#C)nc2cc(C(N)=O)c3oc(C)cc3c21 [Example 10]	–
175.49	C=CCn1nc(C)cc1C(=O)Nc1nc2cc(C(N)=O)cc(OC3COC3)c2n1C/C=C/Cn1c(NC(=O)c2cc(C)nn2CC=C)nc2cc(C(N)=O)c3oc(C)cc3c21 [Example 18]	–
90.48	CCn1nc(C)cc1C(=O)Nc1nc2cc(C(N)=O)cc(OCCCN3CCOCC3)c2n1C/C=C/Cn1c(NC(=O)c2cc(C)nn2CC)nc2cc(C(N)=O)c3oc(C)cc3c21 [Example 19]	anti-tumor effect (tumor volume growth curves) (CT26 colon cancer): significant anti-tumor effect; anti-tumor effect (tumor volume growth curves) (EMT6 breast cancer): significant anti-tumor effect
159.71	Cc1cc(C(=O)Nc2nc3cc(C(N)=O)cc(OCCCN4CCOCC4)c3n2C/C=C/Cn2c(NC(=O)c3cc(C)nn3CC(F)(F)F)nc3cc(C(N)=O)c4oc(C)cc4c32)n(CC(F)(F)F)n1 [Example 20]	–
80.54	CCn1nc(C)cc1C(=O)Nc1nc2cc(C(N)=O)ccc2n1C/C=C/Cn1c(NC(=O)c2cc(C)nn2CC)nc2cc(C(N)=O)cc(OCCCO)c21 [GSK compound 1, reference compound]	–
70.83	CCn1nc(C)cc1C(=O)Nc1nc2cc(C(N)=O)cc(OC)c2n1C/C=C/Cn1c(NC(=O)c2cc(C)nn2CC)nc2cc(C(N)=O)cc(OCCCN3CCOCC3)c21 [GSK compound 3, reference compound]	–
